Structures can show the parent of a compound that is named as a salt. Where two headings read alike, the source gives them in different places.
Tested on: amyloid β production in transfected H4 (human neuroglioma) cells stably expressing APP constructs
Assay: In vitro cell-based assay of inhibitors of amyloid β production (ELISA)
Conditions: amyloid β in medium by ELISA
Outline: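 Plate wt/variant APP cells; ≥6 h later swap to medium + compound (10-100 μM screen); incubate ~16 h; sample medium; Aβ ELISA with C-terminal capture / N-terminal detection Abs; quantify vs Aβ standard curve.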

[1] = Homo sapiens, 16 h, transfected H4 cells stably expressing APP, approximately 16 hours incubation, read-out: ACTIVITY (IC50, inhibition of amyloid β production)
[2] = transfected H4 cells stably expressing APP, approximately 16 hours incubation, Table B, read-out: ACTIVITY (IC50, inhibition of amyloid β production)
[3] = transfected H4 cells stably expressing APP constructs, approximately 16 hours incubation, read-out: ACTIVITY (IC50, inhibition of amyloid β production)
[4] = transfected H4 cells stably expressing APP, approx. 16 h incubation, read-out: ACTIVITY (IC50, inhibition of amyloid β production)
[5] = transfected H4 cells stably expressing APP, approximately 16 hours incubation, read-out: ACTIVITY (IC50, inhibition of amyloid β production)
[6] = Table B, transfected H4 cells stably expressing APP, approximately 16 hours incubation, read-out: ACTIVITY (inhibitory concentration IC50, inhibition of amyloid β production)
[7] = Homo sapiens, 16 h, transfected H4 cells stably expressing APP constructs, approximately 16 hours incubation, read-out: ACTIVITY (IC50, inhibition of amyloid β production)
[8] = Homo sapiens, 16 h, transfected H4 cells expressing APP, approximately 16 hours incubation, read-out: ACTIVITY (IC50, inhibition of amyloid β production)

Compound: C=C(C)C(=O)CCCc1cc(F)ccc1[C@@H](C)N(c1cc(F)ccc1F)S(=O)(=O)c1ccc(Cl)cc1 [Example 207, 4-chloro-N-(2,5-difluorophenyl)-N-{(1R)-1-[4-fluoro-2-(5-methyl-4-oxo-5-hexenyl)phenyl]ethyl}benzenesulfonamide]
- IC50 (Homo sapiens, 16 h, Table B, transfected H4 cells stably expressing APP, approximately 16 hours incubation, read-out: ACTIVITY (inhibitory concentration IC50, inhibition of amyloid β production)): 25 to 50 nM

Compound: COc1ccc(S(=O)(=O)CCCOc2ccccc2CN(Nc2cc(F)ccc2F)S(=O)(=O)c2ccc(Cl)cc2)cc1 [Example 871, 4-chloro-N-(2,5-difluoroanilino)-N-(2-{3-[(4-methoxyphenyl)sulfonyl]propoxy}benzyl)benzenesulfonamide]
- IC50 [1]: 100 to 500 nM

Compound: O=S(=O)(c1ccc(Cl)cc1)N(Cc1ccccc1OCCCN1CCCCC1)C1CCOCC1 [Example 271, 4-Chloro-N-{2-[3-(1-piperidinyl)propoxy]benzyl}-N-tetrahydro-2H-pyran-4-ylbenzenesulfonamide hydrochloride]
- IC50 [2]: 25 to 50 nM

Compound: CC(C)[S+]([O-])CCC[C@@H](C)N(c1cc(F)ccc1F)S(=O)(=O)c1ccc(Cl)cc1 (stereo partly shown) [Example 1179]
- IC50 [3]: ≤ 25 nM

Compound: 2-((1R)-1-{[(4-chlorophenyl)sulfonyl]-2,5-difluoroanilino}ethyl)-5-fluorobenzyl 4-(trifluoromethyl)benzylcarbamate [Example 658]
- IC50 [4]: 100 to 500 nM

Compound: N-{3-[2-({[(4-chlorophenyl)sulfonyl]-2,5-difluoroanilino}methyl)phenoxy]propyl}-N-methyl-1-naphthamide [Example 821]
- IC50 [5]: 100 to 500 nM

Compound: CSc1ccccc1N(Cc1ccccc1OCCCN1CCCCC1)S(=O)(=O)c1ccc(Cl)cc1 [Example 924, 4-chloro-N-[2-(methylsulfanyl)phenyl]-N-{2-[3-(1-piperidinyl)propoxy]benzyl}benzenesulfonamide hydrochloride]
- IC50 [1]: > 500 nM

Compound: CC(c1ccccc1O)N(c1cc(F)ccc1F)S(=O)(=O)c1ccc(Cl)cc1 (stereo not shown) [Example 1052, 4-chloro-N-(2,5-difluorophenyl)-N-[1-(2-hydroxyphenyl)ethyl]benzenesulfonamide]
- IC50 [1]: > 500 nM

Compound: N-{3-[2-(1-{[(4-chlorophenyl)sulfonyl]-2,5-difluoroanilino}ethyl)phenoxy]propyl}-N-methyl-2-naphthamide [Example 858]
- IC50 [5]: 100 to 500 nM

Compound: C[C@H](O)CO[Si](C)(C)C(C)(C)C [Example 21]
- IC50 [6]: ≤ 25 nM

Compound: CCSCCC[C@@H](C)N(c1cc(Cl)ccc1CO)S(=O)(=O)c1ccc(Cl)cc1 [Example 1227, 4-chloro-N-[5-chloro-2-(hydroxymethyl)phenyl]-N-[1(R)-methyl-(4-ethylthio)butyl]benzenesulfonamide]
- IC50 [3]: ≤ 25 nM

Compound: C[C@@H](c1ccc(F)cc1CCCC(=O)O)N(c1cc(F)ccc1F)S(=O)(=O)c1ccc(Cl)cc1 [Example 1076, 4-[2-((1S)-1-{[(4-chlorophenyl)sulfonyl]-2,5-difluoroanilino}ethyl)-5-fluorophenyl]butanoic acid]
- IC50 [5]: > 500 nM

Compound: C[C@H](CCCCN1CCC(S(C)(=O)=O)CC1)N(c1cc(Cl)ccc1Cl)S(=O)(=O)c1ccc(Cl)cc1 [Example 1123, 4-chloro-N-(2,5-dichlorophenyl)-N-[5-[(4-methylsulfonyl)-1-piperidinyl]-1(R)-methylpentyl]benzenesulfonamide]
- IC50 [3]: 50 to 100 nM

Compound: CCN(CC)S(=O)(=O)CCC[C@@H](C)N(c1cc(Cl)ccc1Cl)S(=O)(=O)c1ccc(Cl)cc1 [Example 1213, 4-chloro-N-[2,5-dichlorophenyl]-N-[4-[(diethylamino)sulfonyl]-1(R)-methylbutyl]benzenesulfonamide]
- IC50 [7]: ≤ 25 nM

Compound: C[C@H](c1ccccc1CCC(=O)NCc1ccco1)N(c1cc(F)ccc1F)S(=O)(=O)c1ccc(Cl)cc1 [Example 404, 3-[2-((1R)-1-{[(4-chlorophenyl)sulfonyl]-2,5-difluoroanilino}ethyl)phenyl]-N-(2-furylmethyl)propanamide]
- IC50 (Homo sapiens, 16 h, transfected H4 cells stably expressing APP, approximately 16 hours incubation, Table B, read-out: ACTIVITY (IC50, inhibition of amyloid β production)): 50 to 100 nM

Compound: O=C(c1ccccc1F)N1CCCCC1CCOc1ccccc1CN(c1cc(F)ccc1F)S(=O)(=O)c1ccc(Cl)cc1 (stereo not shown) [Example 787]
- IC50 [4]: 100 to 500 nM

Compound: CS(=O)(=O)c1ccccc1N(Cc1ccccc1OCCCN1CCCCC1)S(=O)(=O)c1ccc(Cl)cc1 [Example 1027, 4-chloro-N-[2-(methylsulfonyl)phenyl]-N-{2-[3-(1-piperidinyl)propoxy]benzyl}benzenesulfonamide hydrochloride]
- IC50 [1]: > 500 nM

Compound: N-{3-[2-({[(4-chlorophenyl)sulfonyl]-2,5-difluoroanilino}methyl)phenoxy]propyl}-N,4-dimethylbenzamide [Example 893]
- IC50 [5]: > 500 nM

Compound: CCOc1ccc(C(=O)N(C)CCCOc2ccccc2C(C)N(c2cc(F)ccc2F)S(=O)(=O)c2ccc(Cl)cc2)cc1 (stereo not shown) [Example 768]
- IC50 [4]: 100 to 500 nM

Compound: N-{2-[2-(1-{[(4-chlorophenyl)sulfonyl]-2,5-difluoroanilino}ethyl)phenoxy]ethyl}-3-cyclopentyl-N-ethylpropanamide [Example 857]
- IC50 [5]: 100 to 500 nM

Compound: C[C@H](CCCN(CCCn1ccnc1)CC1CC1)N(c1cc(Cl)ccc1Cl)S(=O)(=O)c1ccc(Cl)cc1 [Example 1135]
- IC50 [3]: 100 to 500 nM

Compound: COC(=O)CSCC[C@@H](C)N(c1cc(Cl)ccc1Cl)S(=O)(=O)c1ccc(Cl)cc1 [Example 179, Methyl(6R)-6-[(2,5,dichlorophenyl)[(4-chlorophenyl)sulfonyl]amino]-3-thioheptanoate]
- IC50 [6]: ≤ 25 nM

Compound: O=S(=O)(c1ccc(Cl)cc1)N(Cc1ccccc1OCCCNC1CCCCC1)c1ccccc1 [Example 996, 4-chloro-N-{2-[3-(cyclohexylamino)propoxy]benzyl}-N-phenylbenzenesulfonamide hydrochloride]
- IC50 [1]: > 500 nM

Compound: N-{2-[2-(1-{[(4-chlorophenyl)sulfonyl]-2,5-difluoroanilino}ethyl)phenoxy}ethyl}-N-ethyl-3-methyl-2-butenamide [Example 642]
- IC50 [4]: 100 to 500 nM

Compound: C[C@H](CCOC(c1ccccc1)(c1ccccc1)c1ccccc1)N(c1cc(Cl)ccc1Cl)S(=O)(=O)c1ccc(Cl)cc1 [Example 26, 4-Chloro-N-(2,5-dichlorophenyl]-N-[1(R)-methyl-(3-triphenylmethyloxy)-propyl]benezenesulfonamide]
- IC50 [6]: ≤ 25 nM

Compound: N-{3-[2-({[(4-chlorophenyl)sulfonyl]-2,5-difluoroanilino}methyl)phenoxy]propyl}-N-methylbutanamide [Example 638]
- IC50 [4]: 100 to 500 nM

Compound: (2R)-2-{[(4-chlorophenyl)sulfonyl]-2,5-difluoroanilino}propyl isonicotinate [Example 1057]
- IC50 [5]: > 500 nM

Compound: COC(=O)CS(=O)(=O)CCc1cc(F)ccc1[C@@H](C)N(c1cc(F)ccc1F)S(=O)(=O)c1ccc(Cl)cc1 [Example 478, Methyl ({2-[2-((1R)-1-{[(4-chlorophenyl)sulfonyl]-2,5-difluoroanilino}ethyl)-5-fluorophenyl]ethyl}sulfonyl)acetate]
- IC50 [2]: 100 to 500 nM

Compound: O=S(=O)(c1ccc(Cl)cc1)N(Cc1ccccc1OCCCN1CCNCC1)c1ccccc1 [Example 944, 4-chloro-N-phenyl-N-{2-[3-(1-piperazinyl)propoxy]benzyl}benzenesulfonamide dihydrochloride]
- IC50 [1]: > 500 nM

Compound: C[C@H](C(=O)NCCc1ccc(O)cc1)N(c1cc(Cl)ccc1F)S(=O)(=O)c1ccc(Cl)cc1 [Example 1331]
- IC50 [8]: > 500 nM

Compound: C[C@H](CCCS(=O)(=O)N(C)C)N(c1cc(Cl)ccc1F)S(=O)(=O)c1ccc(Cl)cc1 [Example 1202, 4-chloro-N-(5-chloro-2-fluorophenyl)-N-[4-[(dimethylamino)sulfonyl]-1(R)-methylbutyl]benzenesulfonamide]
- IC50 [7]: ≤ 25 nM

Compound: C[C@H](C(=O)NCCCCCCO)N(c1cc(Cl)ccc1F)S(=O)(=O)c1ccc(Cl)cc1 [Example 1350]
- IC50 [8]: 100 to 500 nM

Compound: C[C@H](C(=O)NCc1cccnc1)N(c1cc(Cl)ccc1F)S(=O)(=O)c1ccc(Cl)cc1 [Example 1332]
- IC50 [8]: 100 to 500 nM

Compound: 3,4-dichloro-N-{3-[2-({[(4-chlorophenyl)sulfonyl]-2,5-difluoroanilino}methyl)phenoxy]propyl}-N-methylbenzamide [Example 932]
- IC50 [5]: > 500 nM

Compound: C=CCN(Cc1ccccc1OCCCN1CCCCC1)S(=O)(=O)c1ccc(Cl)cc1 [Example 985, N-allyl-4-chloro-N-{2-[3-(1-piperidinyl)propoxy]benzyl}benzenesulfonamide hydrochloride]
- IC50 [1]: > 500 nM

Compound: (2E)-1-N-{3-[2-({[(4-chlorophenyl)sulfonyl]-2,5-difluoroanilino}methyl)phenoxy]propyl}-N-methyl-2-butenamide [Example 783]
- IC50 [4]: 100 to 500 nM

Compound: C[C@H](CCCS(=O)(=O)N1CCC1)N(c1cc(Cl)ccc1Cl)S(=O)(=O)c1ccc(Cl)cc1 [Example 1198, 4-chloro-N-[2,5-dichlorophenyl]-N-[4-[(1-azetidinyl)sulfonyl]-1(R)-methylbutyl]benzenesulfonamide]
- IC50 [7]: ≤ 25 nM
